Literature values in patent US5691307A, “O^6 -substituted guanine compositions and methods for depleting O^6” (The United States of America as represented by the …, priority 1994, dated 1997).
Entries after “also recorded” stand apart in the source; their conditions may differ.

How the values were obtained:
AGT = details: cited from earlier work
human tumor xenografts = details: nude mice bearing human tumor xenografts; cited from earlier work
prostate tumors = details: cited from earlier work
[1] = athymic mice; cited from earlier work
[2] = tested on: malignant glioma cells (SF767); details: SF767, in vitro; cited from earlier work
[3] = tested on: AGT activity of D341MED xenograft tumors; details: i.p., sc D341MED; cited from earlier work
[4] = tested on: D245MG, a human glioma xenograft; details: sc D245MG, cited from earlier work
[5] = tested on: human colon cancer cells (HT29); details: HT29, in vitro; cited from earlier work
tumor cells = details: cited from earlier work
[6] = tested on: intracranial (ic) xenografts of D341MED; details: athymic mice; cited from earlier work
[7] = tested on: D341MED, a human medulloblastoma xenograft; details: sc D341MED, cited from earlier work
melanoma cells (M19-mel) = details: in vitro; cited from earlier work

In the case of Nc1nc(OCc2ccccc2)c2nc[nH]c2n1 [O^6 -benzylguanine], the “potency as AGT depleter” value (AGT) is given as “more potent”, the “AGT depletion (shown previously)” value (AGT; literature) is given as “effective in depleting AGT; also recorded: dramatic and rapid depletion of cellular alkyltransferase activity” and the “therapeutic effectiveness of chloroethylating nitrosoureas after pretreatment” value (human tumor xenografts) is given as “dramatic increase in the therapeutic effectiveness of chloroethylating nitrosoureas in vivo”. The “anti-tumor effect of BCNU after O^6-benzylguanine pretreatment” value (prostate tumors; prostate cancer) was “enhanced”, the “regression in tumor growth” value (prostate tumors; rats bearing prostate tumors, O^6-benzylguanine one hour prior to BCNU, or BCNU alone at equal dose) was “regression in tumor growth” and the “toxicity of BCNU after O^6-benzylguanine pretreatment” value [1] was “increased the toxicity of BCNU significantly”. For the same compound, the “sensitivity to chloroethylating and methylating anti-tumor drugs” value (“sensitivity” below) [2] was “increase the sensitivity”, the “AGT activity of the tumors” value [3] was “undetectable” and the “time to undetectable tumor AGT activity” value [3] was ≤ 1 h. For the same compound, the “time until which tumor AGT remained depleted” value [3] was 36 h, the “therapeutic effect, higher doses of O^6-benzylguanine” value ([4]; with BCNU) was “greater therapeutic effect” and the “therapeutic effect of combination regimens vs equitoxic dose of BCNU alone” value [4] was “None of the combination regimens, however, were as effective as an equitoxic dose of BCNU alone”. The “therapeutic effect, O^6-benzylguanine 1 hour prior to BCNU” value [4] was “significantly greater effect than was seen with BCNU treatment alone”, the “sensitivity” value [5] was “increase the sensitivity” and the “enhancement in the cytotoxic response to alkylating agents” value (tumor cells) was “enhancement in the cytotoxic response to chemotherapeutic alkylating agents”. For the same compound, the “survival, BCNU 1 hour after O^6-benzylguanine” value [6] was “significantly increased survival as compared to that of control, BCNU alone, O^6 -benzylguanine alone and O^6 -benzylguanine followed 36 hours later by BCNU”, the “therapeutic effect, lower pretreatment dose of O^6-benzylguanine” value ([7]; with BCNU) was “significantly lesser therapeutic effect” and the “therapeutic effect, BCNU 1 hour after O^6-benzylguanine” value [7] was “significantly greater effect than was seen with either the same or a higher dose of BCNU alone”. The “therapeutic effect, BCNU delayed until 36 hours after O^6-benzylguanine” value [7] was “greatly reduced effect that was not significantly different than that produced by control or BCNU alone” and the “sensitivity” value (melanoma cells (M19-mel)) was “increase the sensitivity”.
